The values below come from patent publication US8754106B2, “Macrocyclic inhibitors of hepatitis C virus” (Tibotec Pharmaceuticals Ltd., priority 2005, dated 2014).

In one series the target is HCV NS3/4A protease (Hepatitis C virus genotype 1a (isolate H77) (HCV), UniProt P27958). Put plainly: Inhibition assay (enzymatic assay), depsipeptide substrate hydrolysis. The note with it: full-length NS3 protease 1 nM, 25 μM NS4A cofactor, 0.5 μM substrate, competitive inhibition model. Format: biochemical. The procedure: [Landro, 1997 #Biochem 36 9340-9348]. […] The solutions were stored at −20° C. between measurements.
Chain of HCV NS3/4A protease (P27958 1027-1657): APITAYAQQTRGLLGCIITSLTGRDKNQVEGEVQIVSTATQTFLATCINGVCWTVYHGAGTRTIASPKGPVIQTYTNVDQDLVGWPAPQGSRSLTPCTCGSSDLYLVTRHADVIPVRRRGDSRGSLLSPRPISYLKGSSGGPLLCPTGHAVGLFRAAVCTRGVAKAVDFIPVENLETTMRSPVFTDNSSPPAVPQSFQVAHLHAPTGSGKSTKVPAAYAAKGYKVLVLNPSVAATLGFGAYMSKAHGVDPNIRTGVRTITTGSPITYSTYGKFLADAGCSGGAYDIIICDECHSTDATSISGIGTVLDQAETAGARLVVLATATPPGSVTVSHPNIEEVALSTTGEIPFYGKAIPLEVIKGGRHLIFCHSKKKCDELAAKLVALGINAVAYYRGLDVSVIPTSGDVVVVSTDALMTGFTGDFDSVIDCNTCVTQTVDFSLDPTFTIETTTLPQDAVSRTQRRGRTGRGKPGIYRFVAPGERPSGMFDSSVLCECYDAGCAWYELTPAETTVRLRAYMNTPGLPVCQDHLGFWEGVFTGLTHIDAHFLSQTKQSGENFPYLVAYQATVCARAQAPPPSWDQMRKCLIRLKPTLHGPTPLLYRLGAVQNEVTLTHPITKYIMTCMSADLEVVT
[Liu, 1999 Analytical Biochemistry 267 331-335].

Series [1] has as its system HCV replicons (Huh-Luc cells, NS3-NS5B regions of HCV type Ib). Put plainly: Replicon assay (Huh-7 luc/neo cells, luciferase readout). Format: cell-based. The note with it: three days incubation, luciferase activity. From the text:
The compounds of formula (I) were examined for activity in the inhibition of HCV RNA replication in a cellular assay. […] The cellular assay was based on a bicistronic expression construct, as described by Lohmann et al. (1999) Science vol. 285 pp. 110-113 with modifications described by Krieger et al. (2001) Journal of Virology 75: 4614-4624, in a multi-target screening strategy. In essence, the method was as follows.
The assay utilized the stably transfected cell line Huh-7 luc/neo (hereafter referred to as Huh-Luc). This cell line harbors an RNA encoding a bicistronic expression construct comprising the wild type NS3-NS5B regions of HCV type Ib translated from an Internal Ribosome Entry Site (IRES) from encephalomyocarditis virus (EMCV), preceded by a reporter portion (FfL-luciferase), and a selectable marker portion (neo^R, neomycine phosphotransferase). The construct is bordered by 5′ and 3′ NTRs (non-translated regions) from HCV type Ib. Continued culture of the replicon cells in the presence of G418 (neo^R) is dependent on the replication of the HCV RNA. The stably transfected replicon cells that express HCV RNA, which replicates autonomously and to high levels, encoding inter alia luciferase, are used for screening the antiviral compounds.
The replicon cells were plated in 384 well plates in the presence of the test and control compounds which were added in various concentrations. Following an incubation of three days, HCV replication was measured by assaying luciferase activity (using standard luciferase assay substrates and reagents and a Perkin Elmer ViewLux™ ultraHTS microplate imager). Replicon cells in the control cultures have high luciferase expression in the absence of any inhibitor. The inhibitory activity of the compound on luciferase activity was monitored on the Huh-Luc cells, enabling a dose-response curve for each test compound.

Series [2] in a line: Oral pharmacokinetics of Compound nr. 47 in rat with ritonavir boosting. In kind it is in vivo, Sprague-Dawley rats. The note with it: single oral 10 mg/kg Compound nr. 47 in 50% PEG400/water, boosted with 10 mg/kg ritonavir about 30 minutes before, plasma. The procedure:
Oral pharmacokinetics of Compound nr. 47 in male and female Sprague-Dawley rats after a single dose at 10 mg/kg, using a formulation in 50% PEG400/water and the influence of “boosting” with 10 mg/kg ritonavir were investigated.
Four male and four female Sprague-Dawley (SD)-rats (approx. body weight 200-250 g) were randomly divided into 2 groups of 2 males and females each (boosted and non-boosted) based on body weight. […] The animals were fasted shortly before the trial. Drinking water remained available ad libitum.
Rats from the non-boosted group received a single oral 10 mg/kg dose of Compound nr. 47, formulated as a 3 mg/ml 50% PEG400/water at pH 8. Rats from the boosted group received a single oral dose of ritonavir, about 30 minutes before single oral dosing with 10 mg/kg of Compound nr. 47. The drug formulations were administered by oral gavage.
From each rat, a 0.5 ml blood sample was collected at 0.5 h, 1 h, 2 h, 4 h and 8 h after dosing. Plasma concentrations were determined using HPLC-MS. Results are shown in the table 2 below, expressed as fold change in pharmacokinetic parameter of the boosted group as compared to the non-boosted group.

Consider “N-[[18-[2-[4-(isopropyl)thiazol-2-yl]-7-methoxy-8-methylquinolin-4-yloxy]-2,15-dioxo-3,14,16-triazatricyclo[14.3.0.0^4,6]nonadec-7-en-4-yl]carbonyl]-(cyclopropyl)sulfonamide [Compound 91]”, for which the Ki (commonly the dissociation constant of the complex between target and ligand, obtained from inhibition or displacement) on HCV NS3/4A protease is 0.05 nM. Moreover, the half-maximal effective concentration (EC50) (commonly the midpoint of the concentration-response curve) in series [1] is 0.00854 µM.
For `CCc1c(OC)ccc2c(O[C@@H]3C[C@H]4C(=O)N[C@]5(C(=O)O)C[C@H]5/C=C\CCCCN(C)C(=O)[C@@H]4C3)cc(-c3nc(C(C)C)cs3)nc12` [Compound 71], the 50% effective concentration (EC50) in series [1] (Hepatitis C virus, Huh-7, 72 h) was 10 µM.
In the case of `COc1ccc2c(O[C@@H]3C[C@H]4C(=O)N[C@]5(C(=O)NS(=O)(=O)C6CC6)C[C@H]5/C=C\CCCCN(C)C(=O)[C@@H]4C3)cc(-c3nc(C(C)C)cs3)nc2c1C` [Compound 47, N-[17-[2-(4-isopropylthiazole-2-yl)-7-methoxy-8-methylquinolin-4-yloxy]-13-methyl-2,14-dioxo-3,13-diazatricyclo[13.3.0.0^4,6]octadec-7-ene-4-carbonyl](cyclopropyl)sulfonamide], the “Cmax, fold change of the boosted group as compared to the non-boosted group” value in series [2] amounted to 2.2 fold.
Turning to `COc1ccc2c(O[C@H]3C[C@H]4C(=O)NCCCCC/C=C\[C@@H]5C[C@@]5(C(=O)O)NC(=O)[C@@H]4C3)cc(-c3nc(C(C)C)cs3)nc2c1C` [Compound 81], on HCV NS3/4A protease, the Ki worked out at 1000 nM. Further, the midpoint of the response in series [1] (Hepatitis C virus, Huh-7, 72 h), the EC50, lay at 10 µM.
